Assay results: ChEMBL document CHEMBL1121377, “Synthesis and biological activities of chloroethylurea, methylurea, and nitrosourea analogues of N-deacetylmethylthiocolchicine” (1980)

Key:
Type in all cases: functional
[1] = tested on: Human alphaherpesvirus 1; assay: Percent inhibition of herpes simplex type-1 virus at the concentration of 1 uM
[2] = tested on: L1210; assay: In vitro inhibitory activity against murine leukemia L1210 cells; conditions: Mus musculus, read-out: ED50 (the source's name)
[3] = In vitro inhibitory activity against Sarcoma 180 cells; conditions: Mus musculus, read-out: ED50 (the source's name)
[4] = tested on: Human alphaherpesvirus 1; assay: Percent inhibition of herpes simplex type-1 virus at the concentration of 175 uM
[5] = tested on: Human alphaherpesvirus 1; assay: Percent inhibition of herpes simplex type-1 virus at the concentration of 10 uM
[6] = tested on: Human alphaherpesvirus 1; assay: Percent inhibition of herpes simplex type-1 virus at the concentration of 20 uM
[7] = tested on: Human alphaherpesvirus 1; assay: Percent inhibition of herpes simplex type-1 virus at the concentration of 50 uM

Row | Structure (SMILES) | EC50 [2] [nM] | EC50 [3] [nM] | further results
1 | COc1cc2c(c(OC)c1OC)-c1ccc(SC)c(=O)cc1C(NC(=O)N(CCCl)N=O)CC2 (centres undefined) | 12 | 27 | inhibition at 1 µM [1]: 76%
2 | CNC(=O)NC1CCc2cc(OC)c(OC)c(OC)c2-c2ccc(SC)c(=O)cc21 (centres undefined) | 33 | 29 | inhibition at 175 µM [4]: 85%
3 | COc1cc2c(c(OC)c1OC)-c1ccc(SC)c(=O)cc1C(NC(=O)N(C)N=O)CC2 (centres undefined) | 18 | 26 | inhibition at 10 µM [5]: 86%
4 | COc1cc2c(c(OC)c1OC)-c1ccc(SC)c(=O)cc1C(NC(=O)NCCCl)CC2 (centres undefined) | 16 | 30 | inhibition at 20 µM [6]: 72%
5 | O=NN(CCCl)C(=O)NCCCl [CARMUSTINE] | 4000 | – | –
6 | O=c1[nH]c(=O)n([C@H]2C[C@H](O)[C@@H](CO)O2)cc1I [IDOXURIDINE] | – | – | inhibition at 50 µM [7]: 99.3%
